From patent publication US20060069132A1, “Azolecarboxamide herbicides” (priority 2004, published 2006)

Assays:
large crabgrass = experiment: Test A pre-/postemergence herbicide test; format: in vivo, Digitaria sanguinalis
Procedure, shortened: (§1)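 Visual injury scores on a 0–100 scale (100 = complete control) taken about ten days post-treatment in greenhouse against untreated controls; dash means no result. Treatments: preemergence soil spray and postemergence spray to runoff on one- to two-leaf plants 2 to 10 cm tall, surfactant-containing formulation.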

rice = experiment: Test B pre-/postemergence herbicide test; format: in vivo, Oryza sativa; conditions: for Rice plant response rating (0 to 100 scale) / Plant response rating, Rice: preemergence
Procedure, shortened: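 Response was scored visually 13 to 15 days after treatment against untreated greenhouse controls, 0 meaning no effect and 100 complete control. Formulations (solvent mixture plus surfactant) went onto soil after planting, onto foliage of 1- to 4-leaf plants, and onto 2-leaf plants in a flooded paddy set including rice and barnyardgrass.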

giant foxtail = experiment: Test A pre-/postemergence herbicide test; format: in vivo, Setaria faberi
Procedure, shortened: as §1

barnyardgrass = experiment: Test C flooded paddy test; format: in vivo, Echinochloa crus-galli
Procedure, shortened: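 Visual rating, 0 (no effect) to 100 (complete control), vs. controls at 12–14 d in greenhouse. Postemergence: 1–4-leaf plants, 2–18 cm. Paddy: flooded, barnyardgrass at 2-leaf stage.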

redroot pigweed = experiment: Test A pre-/postemergence herbicide test; format: in vivo, Amaranthus retroflexus
Procedure, shortened: as §1

[1] = Postemergence, 500 g ai/ha, 0 to 100 scale, 0 no effect, 100 complete control
[2] = Postemergence, 2000 g ai/ha, 0 to 100 scale, 0 no effect, 100 complete control
[3] = Preemergence, 2000 g ai/ha, visual rating, 0 to 100 scale (0 no effect, 100 complete control)
[4] = preemergence, 500 g ai/ha, visual injury, 0 to 100 scale (0 no effect, 100 complete control)
[5] = 125 g ai/ha, 0 = no effect, 100 = complete control
[6] = 500 g ai/ha, visual rating, 0 = no effect, 100 = complete control
[7] = 62 g ai/ha, scale 0 to 100 (0 no effect, 100 complete control)
[8] = 125 g ai/ha, scale 0 to 100 (0 no effect, 100 complete control)
[9] = 250 g ai/ha, scale of 0 to 100, 0 is no effect, 100 is complete control
[10] = 500 g ai/ha, visual rating after 12 to 14 days, scale 0 to 100 (0 no effect, 100 complete control)
[11] = Preemergence, 500 g ai/ha, visual rating, 0 to 100 scale (0 no effect, 100 complete control)
[12] = 125 g ai/ha, 0 to 100 scale, 0 is no effect, 100 is complete control
[13] = 125 g ai/ha, scale of 0 to 100, 0 is no effect, 100 is complete control
[14] = Preemergence, 2000 g ai/ha, 0 to 100 scale, 0 no effect, 100 complete control

Structure (SMILES)	Crabgrass, Large plant response rating (large crabgrass; [1])	Plant response rating, Crabgrass, Large (large crabgrass; [2])	Crabgrass, Large plant response rating (large crabgrass; [3])	Crabgrass, Large plant response rating (large crabgrass; [4])	Rice plant response rating (0 to 100 scale) (rice; [5])	Plant response rating, Rice (rice; [6])	Foxtail, Giant plant response rating (giant foxtail; [1])	Plant response rating, Foxtail, Giant (giant foxtail; [2])	Foxtail, Giant plant response rating (giant foxtail; [3])	Foxtail, Giant plant response rating (giant foxtail; [4])	Barnyardgrass plant response rating (barnyardgrass; [7])	Barnyardgrass plant response rating (barnyardgrass; [8])	Barnyardgrass plant response rating (barnyardgrass; [9])	Plant response rating, Barnyardgrass (barnyardgrass; [10])	Pigweed plant response rating (redroot pigweed; [1])	Plant response rating, Pigweed (redroot pigweed; [2])	Pigweed plant response rating (redroot pigweed; [3])	Pigweed plant response rating (redroot pigweed; [4])	Crabgrass, Large plant response rating (large crabgrass; [11])	Plant response rating, Rice (rice; [12])	also measured
CCn1nc(C(C)(C)C)cc1C(=O)Nc1cccc(OC(C)C)c1 [Compound 273]	25	65	100	75	0	40	50	70	100	85	20	40	60	70	100	100	100	100			
C=CCn1nc(C(C)(C)C)cc1C(=O)Nc1cccc(C(C)=NO)c1 [Compound 117]	40	65	75				35	55	60		10		50	50	80	95	90		45	20	Foxtail, Giant plant response rating (giant foxtail; [11]): 25; Barnyardgrass plant response rating (barnyardgrass; [13]): 20; Pigweed plant response rating (redroot pigweed; [11]): 55
CCNC(=O)c1cc(NC(=O)c2cn(C(C)(C)C)nc2CC)ccc1F [Compound 241, 1-(1,1-dimethylethyl)-3-ethyl-N-[3-[(ethylamino)carbonyl]-4-fluorophenyl]-1H-pyrazole-4-carboxamide]																					plant injury at 125 g/ha (rice; Oryza sativa, pre-emergence, 336 h, 125 g ai/ha, 0 = no effect, 100 = complete control, read-out: Rice plant response rating (0 to 100 scale)): 0%; plant injury at 500 g/ha (rice; Oryza sativa, pre-emergence, 336 h, 500 g ai/ha, visual rating, 0 = no effect, 100 = complete control, read-out: Plant response rating, Rice): 80%; pest or weed control at 62 g/ha (barnyardgrass; Echinochloa crus-galli, 62 g ai/ha, scale 0 to 100 (0 no effect, 100 complete control), read-out: Barnyardgrass plant response rating): 0%; pest or weed control at 125 g/ha (barnyardgrass; Echinochloa crus-galli, 125 g ai/ha, scale 0 to 100 (0 no effect, 100 complete control), read-out: Barnyardgrass plant response rating): 0%; pest or weed control at 250 g/ha (barnyardgrass; Echinochloa crus-galli, 250 g ai/ha, scale of 0 to 100, 0 is no effect, 100 is complete control, read-out: Barnyardgrass plant response rating): 0%; pest or weed control at 500 g/ha (barnyardgrass; Echinochloa crus-galli, 500 g ai/ha, visual rating after 12 to 14 days, scale 0 to 100 (0 no effect, 100 complete control), read-out: Plant response rating, Barnyardgrass): 30%
CCn1nc(C(C)(C)C)cc1C(=O)Nc1cccc(C(=O)N2CC=CC2)c1 [Compound 286]	20	25	70	15	30	80	35	75	100	60	40	55	70	80	55	85	95	85			
CCn1nc(C(C)(C)C)cc1C(=O)Nc1cccc(C(=O)NOC)c1 [Compound 67]		20						20			0		10	25		85			15	0	Plant response rating, Crabgrass, Large (large crabgrass; [1]): 20; Crabgrass, Large plant response rating (large crabgrass; [14]): 55; Plant response rating, Foxtail, Giant (giant foxtail; [1]): 10; Foxtail, Giant plant response rating (giant foxtail; [11]): 0; Foxtail, Giant plant response rating (giant foxtail; [14]): 30; Barnyardgrass plant response rating (barnyardgrass; [13]): 0; Plant response rating, Pigweed (redroot pigweed; [1]): 50; Pigweed plant response rating (redroot pigweed; [11]): 0; Pigweed plant response rating (redroot pigweed; [14]): 90
CCOC(=O)c1ccc(F)c(NC(=O)c2cc(C3(C)CC3)nn2CC)c1 [Compound 296]						40					15	25	50	65							
